Reference: US12295940B2, “Viral inhibitors, the synthesis thereof, and intermediates thereto” (Takeda Pharmaceutical Company Limited, priority 2022, dated 2025)

Experiments:
[1] = format: physicochemical; conditions: pH 4
Source text: A preliminary test was done to determine the lower pH to be tested: Three samples of the biphasic mixture during 1st NaCl-wash was taken and adjusted separately to pH 4, 5, and 6. These samples were refluxed overnight and sampled for HPLC purity at different time points. […] It was observed that at lower pH values, some white precipitate occurred. This precipitate dissolved upon raising the pH with NaOH. It was assumed that this was the hydrochloride salt of maribavir. Upon further review, at pH<5.5, the precipitate occurred. Therefore, the lowest pH tested was 6. The distilled reaction mixtures were subjected to crystallization on a 400 ml Easymax scale.

[2] = format: physicochemical
Method: The following solubility data was generated and referenced in one or more of the prior examples. A mixture of approx. 2 g of maribavir and 5 mL solvent was stirred overnight in sealed vials at different temperatures. The clear supernatant solutions were sampled for […] assay. All examples were done in triplicates. Table 3-5. Maribavir solubilities in iPrOAc and toluene.

[3] = Stability data of process systems (Example 3-23); format: physicochemical; conditions: 7 days
Method: The following stability data was generated and referenced in one or more of the prior examples. Stability of the following systems were studied and found to be stable for at least 7 days: Stability of Compound 3 HCl in MeOH/TBME at 40° C.; Stability of reaction mixture at 40° C. (amount of maribavir); Stability of biphasic mixture at 40° C. (before extraction); Stability of biphasic mixture at 40° C. (during last NaCl washing); Stability of reaction mixture after final distillation step at Stability of biphasic mixture at 75° C.; Stability of reaction mixture after final distillation step at 90° C.; Stability of crystallization mixture after dosage of 2nd portion of toluene at reflux; Stability of crystallization at 20° C.; Stability of mixture during slurry wash at 20-25° C.; Stability of maribavir in the mother liquor at 20-25° C.; Stability of wet cake at 70° C.; and Stability of dry cake at 70° C.

Stability by HPLC purity (in words) [1]: perfect stability
Solubility in iPrOAc (in words) [2]: good solubility
Stability (time found stable) [3]: at least 7 days
Structure (SMILES): CC(C)Nc1nc2cc(Cl)c(Cl)cc2n1[C@H]1O[C@@H](CO)[C@H](O)[C@@H]1O [Maribavir, (2S,3S,4R,5S)-2-(5,6-dichloro-2-(isopropylamino)-1H-benzo[d]imidazol-1-yl)-5-(hydroxymethyl)tetrahydrofuran-3,4-diol]
